The target in one assay is T1, Interstitial collagenase (Homo sapiens, UniProt P03956).
T1 sequence (P03956 whole entry): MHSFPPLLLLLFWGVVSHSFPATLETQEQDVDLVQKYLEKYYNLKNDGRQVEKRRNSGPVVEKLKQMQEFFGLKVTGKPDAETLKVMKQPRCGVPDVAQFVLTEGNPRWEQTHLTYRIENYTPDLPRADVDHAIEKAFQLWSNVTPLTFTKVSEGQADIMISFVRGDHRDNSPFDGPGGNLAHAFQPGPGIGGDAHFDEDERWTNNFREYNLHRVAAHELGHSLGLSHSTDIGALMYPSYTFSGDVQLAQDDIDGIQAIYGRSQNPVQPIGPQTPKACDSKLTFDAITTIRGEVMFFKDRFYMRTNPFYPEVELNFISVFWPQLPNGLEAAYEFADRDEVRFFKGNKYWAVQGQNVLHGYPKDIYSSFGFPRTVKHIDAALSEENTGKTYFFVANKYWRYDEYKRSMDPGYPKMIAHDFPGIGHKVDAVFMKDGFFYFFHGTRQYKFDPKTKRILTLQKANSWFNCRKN
Nature of the assay: Inhibition of the Collagenase enzyme was determined from purified NSO cells.

In a further assay the target is Stromelysin-1 (Homo sapiens, UniProt P08254). Nature of the assay: Inhibition of the Stromelysin enzyme was determined from purified NSO cells.
Chain of Stromelysin-1 (P08254 whole entry): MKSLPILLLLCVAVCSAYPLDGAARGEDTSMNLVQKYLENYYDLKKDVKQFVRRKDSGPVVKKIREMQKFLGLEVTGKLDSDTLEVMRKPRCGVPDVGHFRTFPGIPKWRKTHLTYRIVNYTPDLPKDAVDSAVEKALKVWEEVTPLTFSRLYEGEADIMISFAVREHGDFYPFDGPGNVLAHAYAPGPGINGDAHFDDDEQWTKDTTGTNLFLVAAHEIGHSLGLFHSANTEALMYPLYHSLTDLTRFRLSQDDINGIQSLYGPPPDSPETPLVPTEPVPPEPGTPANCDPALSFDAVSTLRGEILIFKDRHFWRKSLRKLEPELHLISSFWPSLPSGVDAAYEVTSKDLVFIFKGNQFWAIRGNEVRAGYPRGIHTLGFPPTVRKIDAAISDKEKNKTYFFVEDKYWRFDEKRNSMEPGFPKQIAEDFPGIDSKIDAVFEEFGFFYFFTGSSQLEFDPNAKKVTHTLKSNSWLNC
Assay [1] addresses 72 kDa type IV collagenase (Homo sapiens, UniProt P08253). Nature of the assay: Inhibition of the Gelatinase-A enzyme was determined from purified NSO cells.

Structures are written as SMILES. pKi: −log10 of the molar value. Bounds are passed on as bounds.

Chain of 72 kDa type IV collagenase (P08253 whole entry): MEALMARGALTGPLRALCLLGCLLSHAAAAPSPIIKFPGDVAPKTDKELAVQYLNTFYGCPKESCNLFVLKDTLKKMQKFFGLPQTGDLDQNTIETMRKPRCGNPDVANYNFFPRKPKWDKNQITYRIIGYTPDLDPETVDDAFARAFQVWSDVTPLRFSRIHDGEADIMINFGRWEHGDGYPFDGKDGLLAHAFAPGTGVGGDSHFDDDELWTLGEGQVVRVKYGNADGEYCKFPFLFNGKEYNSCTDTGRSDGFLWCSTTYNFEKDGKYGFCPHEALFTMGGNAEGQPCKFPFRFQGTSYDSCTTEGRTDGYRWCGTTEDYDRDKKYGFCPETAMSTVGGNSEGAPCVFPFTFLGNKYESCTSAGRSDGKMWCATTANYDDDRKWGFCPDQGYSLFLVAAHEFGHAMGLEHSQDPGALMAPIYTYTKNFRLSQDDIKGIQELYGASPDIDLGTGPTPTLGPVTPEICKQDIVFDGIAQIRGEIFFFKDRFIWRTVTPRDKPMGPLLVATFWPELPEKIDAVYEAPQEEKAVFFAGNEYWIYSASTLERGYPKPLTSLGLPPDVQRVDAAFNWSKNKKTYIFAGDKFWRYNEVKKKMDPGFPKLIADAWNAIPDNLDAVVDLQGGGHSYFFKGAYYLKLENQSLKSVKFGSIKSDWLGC

Broadly, the pKi is the negative decadic logarithm of the Ki, by convention in mol/L. Take `Cc1ccc(CCC[C@H](CC(=O)O)C(=O)N[C@@H](CC2CCCCC2)C(=O)NCCC(=O)O)cc1`: the pKi at Interstitial collagenase is 4.00; at Stromelysin-1 it was 6.49; in assay [1] it was 8.42.
With `O=C(N[C@@H](CC1CCCCC1)C(=O)NCCN1CCOCC1)[C@H](CCCc1ccccc1)CP(=O)(O)O`, the negative logarithm of the Ki (pKi) on Interstitial collagenase is 4.00; at Stromelysin-1, 5.08; in assay [1], 6.09.
Consider `Cc1ccc(CCC[C@H](CC(=O)O)C(=O)N[C@@H](CC2CCCCC2)C(=O)NCCCCN2CCOCC2)cc1`, for which the negative-log Ki (pKi) is 4.26 on Interstitial collagenase, 6.45 on Stromelysin-1 and 7.99 in assay [1].
Take `NC(=O)[C@H](CC1CCCCC1)NC(=O)[C@H](CCCc1ccccc1)CC(=O)O`: the pKi on Interstitial collagenase was 4.00; on Stromelysin-1 it was 5.51; in assay [1], 6.91.
For `O=C(O)CCNC(=O)[C@H](CC1CCCCC1)NC(=O)[C@H](CCCc1ccccc1)CP(=O)(O)O` the same measures were 4.66, 6.02 and 7.33.
Take `Cc1ccc(CCC[C@H](CC(=O)O)C(=O)N[C@@H](CC2CCCCC2)C(=O)NCCc2ccccc2)cc1`: the negative-log Ki (pKi) is 4.66 at Interstitial collagenase, 6.33 on Stromelysin-1 and 9.00 in assay [1].
The matching figures for `COc1ccc(CCC[C@H](CC(=O)O)C(=O)N[C@@H](CC2CCCCC2)C(=O)NCCc2ccc(S(N)(=O)=O)cc2)cc1`: 5.00, 5.95 and 8.74.
As for `NS(=O)(=O)c1ccc(CCNC(=O)[C@H](CC2CCCCC2)NC(=O)[C@H](CCCc2ccc(Cl)cc2)CC(=O)O)cc1`, the figures for the pKi (at Interstitial collagenase; on Stromelysin-1; in assay [1]) were 4.26, 6.45 and 8.99, respectively.
For the compound `NS(=O)(=O)c1ccc(CCNC(=O)[C@H](CC2CCCCC2)NC(=O)[C@H](CCCc2ccccc2)CC(=O)O)cc1`, the values for the pKi (at Interstitial collagenase; on Stromelysin-1; in assay [1]) were 4.40, 6.02 and 8.19, respectively.
Regarding `O=C(N[C@@H](CC1CCCCC1)C(=O)NCCc1ccccc1)[C@H](CCCc1ccccc1)CP(=O)(O)O`, the pKi on Interstitial collagenase was 4.60; at Stromelysin-1, 6.15; in assay [1], 7.72.
With `COC(=O)CCNC(=O)[C@H](CC1CCCCC1)NC(=O)[C@H](CCCc1ccc(C)cc1)CC(=O)O`, the results for the negative logarithm of the Ki (pKi) (at Interstitial collagenase; on Stromelysin-1; in assay [1]) were 4.38, 6.45 and 8.93, respectively.
In assay [1], `O=C(C[C@@H](CCCc1ccccc1)C(=O)N[C@@H](CC1CCCCC1)C(=O)NCCc1ccccc1)NO` showed a pKi of 10.22.
As to `NC(=O)CCCNC(=O)[C@H](CC1CCCCC1)NC(=O)[C@H](CCCc1ccccc1)CC(=O)O`, the negative-log Ki (pKi) was 4.55 on Interstitial collagenase, 5.97 at Stromelysin-1 and 8.51 in assay [1].
For `Cc1ccc(CCC[C@H](CC(=O)O)C(=O)N[C@@H](CC2CCCCC2)C(=O)NCCc2ccc(S(N)(=O)=O)cc2)cc1`, the negative-log Ki (pKi) on Interstitial collagenase is 4.32; at Stromelysin-1, 6.42; in assay [1] it was 9.05.
The matching figures for `CC(C)Cc1ccc(CCC[C@H](CC(=O)O)C(=O)N[C@@H](CC2CCCCC2)C(=O)NCCc2ccccc2)cc1`: under 5.00, under 5.00 and 6.80.
At Stromelysin-1, `O=C(O)C[C@H](CCCc1ccccc1)C(=O)N[C@@H](CC1CCCCC1)C(=O)NCCc1ccccc1` gave a negative logarithm of the Ki (pKi) of 4.70.
As for `Cc1ccc(CCC[C@H](CP(=O)(O)O)C(=O)N[C@@H](CC2CCCCC2)C(=O)NCCc2ccccc2)cc1` (stereo in doubt; form 1), the negative-log Ki (pKi) was 4.00 on Interstitial collagenase, 4.67 at Stromelysin-1 and 6.44 in assay [1].
As for `Cc1ccc(CCC[C@H](CP(=O)(O)O)C(=O)N[C@@H](CC2CCCCC2)C(=O)NCCc2ccccc2)cc1` (stereo in doubt; form 2), the pKi is 4.77 on Interstitial collagenase, 6.56 at Stromelysin-1 and 8.60 in assay [1].

Values taken from ChEMBL document CHEMBL1128022, “Potent and selective inhibitors of gelatinase-A 2. carboxylic and phosphonic acid derivatives” (Bioorg Med Chem Lett, 1994).
